Consider three compounds from US8575092B2, “Gelling hydrophobic injectable polymer compositions” (Efrat Biopolymers Ltd., priority 2005, dated 2013).

The test system of one data set is S. aureus. Nature of the data set: Minimum inhibitory concentration of gentamicin. The data set is classed as cell-based. The settings on record: S. aureus used in this study. How it is done: The minimum inhibitory concentration of gentamicin for the S. aureus used in this study is 2-4 μg/ml. […] No effect was found in these wells: the O.D. was approximately 0.7. In the wells that contained S. aureus in TSB only, O.D. of approximately 0.6 was found. In view of the results of gentamicin release (FIG. 14) and the profound bacterial inhibition by the diluted solutions (FIG. 15), there is probably a significant antibacterial activity in the release medium at an earlier stage.

For data set [1] the following is noted: mouse.
Experimental: Inbred 8-10 week old female C3H mice, weighing about 20 g (Harlan Laboratories, Israel) were kept under specific pathogen free (SPF) conditions and given free access to irradiated sterile food and acidified water throughout the experiment. Blank polymer and pasty formulations containing paclitaxel (5% and 10% w/w) were injected subcutaneously to the backspace via a 23G needle into 12 groups of four C3H mice in each group. […] After 1, 7, 21 and 70 days, mice were sacrificed by cervical dislocation. The polymer implant was taken out, weighed before and after lyophilization and examined for paclitaxel content in the remaining formulation.
Data set [2] can be described thus: Solubility of bupivacaine free base in the polymer. The format is physicochemical. How it is done: Bupivacaine free base (5, 7, 10% w/w) was incorporated in the liquid polymers by mixing the drug powder in the polymer at 40° C. and filling 1 ml syringe with this formulation. This formulation is a semi-solid at room temperature and liquid at body temperature. […] The free base bupivacaine formed a clear solution in the polymer while the HCl salt was a fine dispersion.
Bupivacaine was incorporated in the polymer without affecting the polymer molecular weight, as confirmed by GPC. Bupivacaine free base (BFB) is easily soluble in P(SA-RA) up to 15% w/w BFB. The hydrochloride salt dispersed well in the polymer without affecting its viscosity at least up to 15% w/w loading. P(SA-RA) 2:8 and 3:7 formulations containing 5% and 7% of bupivacaine constantly released the drug at a first order profile with about 60% of the incorporated drug was released during 7 days in buffer, formulation containing 10% released approximately 70% of its content during this period. For all experiments, the higher MW polymers (Mw=18,000) release the drug at a slower rate, between 10 and 20% less the amount released at each time point, compared to the low MW polymers (Mw=5,000).

Compound gentamicin registered a minimum inhibitory concentration in the data set on S. aureus of 2 to 4 µg/mL. With “Poly(sebacic acid-co-ricinoleic acid ester anhydride) 2:8 [P(SA:RA) (2:8)]”, in data set [1], the in vivo degradation entry is reported as “completely degraded”. Consider `CCCCN1CCCCC1C(=O)Nc1c(C)cccc1C` (stereo not drawn) [BFB, Bupivacaine], for which, in data set [2], the “solubility in P(SA-RA)” value is recorded as “up to 15 % w/w”.
